Data: patent publication US20260232644A1, “Compositions Comprising an Inhibitor of Galectin-3” (University of Liverpool, priority 2023, published 2026)
Counter-ions that a name gives are not always drawn.

Assays:
[1] = system: human breast cancer cells; conditions: by suppressing activation of NFKB induced by TNFα; cited from earlier work
human colon cancer cells = conditions: cited from earlier work
[2] = system: THP-1 differentiated macrophages; test: Galectin-3-induced TNFα secretion from macrophages (ELISA); format: cell-based; conditions: Galectin-3 10 μg/ml, various concentrations
Experimental: (§1) Effect of the compound inhibitors on secretion of pro-inflammatory cytokines from macrophages were assessed in THP-1 monocyte differentiated macrophages. THP-1 cells were induced to differentiation into macrophages by incubation with 10 ng/ml PMA for 48 h at 37° C. The culture medium was then replaced with fresh medium without or with 10 μg/ml galectin-3 and various concentrations of the compound inhibitors for 24 h at 37° C. The culture medium was collected and the concentrations of TNFα and IL-1β in the culture medium were determined by TNFα and IL-1β ELISA.

[3] = system: human lung cancer H1975 cells; test: Lung cancer cell adhesion to basement matrix; format: cell-based; conditions: for IC50: Homo sapiens, NCI-H1975; for Inhibition of H1975 cell adhesion to matrix: different concentrations
Experimental: (§2) Nanty-six well plates were coated with 50 μl Matrigel (1:30 diluted in PBS) at 37° C. for 1 hour.
(§3) Cancer cells, pre-labelled with fluorescent die DiI at 37° C. for 20 minutes, were washed twice with PBS and resuspended into 3×10^4 cells/ml in serum-free medium. The matrix-coated 96-well plates were washed twice with PBS before introduction of 100μ cell suspension with different concentrations of the inhibitors or PBS/DMSO (control) for 1 hour at 37° C. The plates were washed twice with PBS before three randomly selected Field of Views (FOVs) were recorded by fluorescence microscope and number of adhesion cells were quantified by Image J.

[4] = system: human colon cancer SW620 cells; test: LDH release cytotoxicity assay, SW620; format: cell-based; conditions: various concentrations
Experimental: (§6) SW620 cells (5×10^4 cells/ml) were seeded into 96-well plate in DMEM (and incubated at 37° C. 5% CO2 for 24 hr. HUVECs (1.0×10^5 cells/ml) was seeded in EBM medium and incubated for 24-36 hr until they formed a monolayer. Compound inhibitors at different concentrations were then introduced to the cells (10× lysis buffer was included as maximum LDH activity control) for 24 hr. The culture medium was transferred to a new plate and was mixed with equal volume of reaction mixture provided in the kit for 30 min at room temperature before the absorbance was measured at 490 nm (reference 680 nm) by a spectrophotometer.

[5] = system: human colon cancer SW620 cells; test: Galectin-3-mediated SW620 cell adhesion to HUVECs; format: cell-based; conditions: Galectin-3 2 μg/ml, various concentrations
Experimental: HUVEC cells at 1×10^5 cells/ml in EGM medium were seeded into 24 well plates pre-inserted with 13 mm glass coverslip. The cells were incubated at 37° C. at 5% CO2 for 24 hr for monolayer formation. AGA19+ or SW620 cell suspension (5×10^5 cells/ml in DMEM) was introduced with 5 μl/ml fluorescent cell labelling solution DiL for 30 min at 37° C. The fluorescent labelled cells were washed twice with PBS and resuspended into 1×10^5 cells/ml in DMEM. The cancer cell suspension was then introduced with galectin-3 (2 μg/ml) and various concentrations of the compound inhibitors at 37° C. for 1 hr. The wells were carefully washed twice with PBS to remove the non-adhesion cells before the cells in the wells were fixed with 2% paraformaldehyde for 10 min. The glass coverslip was carefully removed from the plate, placed on a glass slide. After addition of fluorescence mounting medium containing DAPI, fluorescence labelled cells were quantified under a fluorescence microscope.

[6] = system: THP-1 differentiated macrophages; test: Galectin-3-induced IL-1β secretion from macrophages (ELISA); format: cell-based; conditions: Galectin-3 10 μg/ml, various concentrations
Experimental: as §1

full-length galectin-3 = target: T1, full-length galectin-3 (Homo sapiens, UniProt P17931); test: Tryptophan Fluorescence Spectroscopy (TFS) binding affinity, full-length Galectin-3
T1 construct: made in house; host or cells: E. coli
T1 sequence (P17931 whole entry): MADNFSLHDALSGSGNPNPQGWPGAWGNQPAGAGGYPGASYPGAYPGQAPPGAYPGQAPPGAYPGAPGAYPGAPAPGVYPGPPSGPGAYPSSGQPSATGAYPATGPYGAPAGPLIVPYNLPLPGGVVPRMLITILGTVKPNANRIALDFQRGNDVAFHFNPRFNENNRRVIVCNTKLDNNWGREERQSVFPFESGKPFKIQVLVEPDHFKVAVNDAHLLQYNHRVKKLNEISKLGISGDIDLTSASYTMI
Experimental: The binding affinity of the inhibitors to galectin-3 was determined by Intrinsic Tryptophan Fluorescence Spectroscopy (TFS) exactly as we described recently [Sindrewicz, P., et al., Intrinsic tryptophan fluorescence spectroscopy reliably determines galectin-ligand interactions. Sci Rep, 2019. 9(1): p. 11851]. The Galectin-3 concentration used was 10 μM and the inhibitor titration concentrations were from 0 to 224 μM. DMSO/control buffer (PBS with 2 mM EDTA) titrations were performed and used for background subtraction.

Galectin-3 = target: T2, Galectin-3 (Homo sapiens, UniProt P17931); test: Galectin-3 binding to asialofetuin (ASF) ELISA; conditions: for Inhibition of Galectin-3 binding to its ligand asialofetuin (ASF): Galectin-3 5 μg/ml, ASF 20 μg/ml, different concentrations of compound, ELISA; for IC50: read-out: IC50, inhibition of Galectin-3 binding to its ligand
T2 construct: made in house; host or cells: E. coli
T2 sequence (P17931 whole entry): as above
Experimental: (§4) Effect of the inhibitors on galectin binding to its ligand asialo fetuin (ASF) was measured by galectin ELISA. Nanty-six well plates were coated overnight with 20 μg/ml ASF in coating buffer (15 mM Na2CO3 17 mM NaHCO3 pH 9.6.). The wells were washed twice with PBS and incubated with blocking buffer (1% BSA in PBS) for 1 hr. The supernatants were removed and replaced with 5 μg/ml recombinant human galectin without or with different concentrations of the compound inhibitors or lactose in blocking buffer for 1 hr at room temperature. The wells were washed and incubated with 1 μg/ml anti-galectin antibody for 2 hr. Following addition of HRP-conjugated secondary antibody for 1 hr, FAST OPD development solution was added for 15-20 minutes. The reaction was terminated by addition of 4M sulphuric acid. The plates were read at 492 nm (reference wavelength 595 nm) by a microplate reader.

[7] = system: human colon cancer SW620 cells; test: SW620 cell invasion through HUVECs (transwell); format: cell-based; conditions: Galectin-3 1 ug/ml, transwells, several concentrations
Experimental: HUVECs were plated at a density of 1.5×10^4 cells in 8 μm pore transwells in 24-well plate and cultured for three days to allow formation of tight monolayer. The integrity of HUVEC monolayer was confirmed by measuring TEER and only monolayers with TEER reading>800 Ω/cm^2 were used for the invasion assay. AGA19+ or SW620 cell suspension (5×10^5 cells/ml in DMEM) was introduced with 5 μl/ml fluorescent cell labelling solution DiL for 30 min at 37° C. The fluorescence labelled cells were washed twice with PBS and resuspended into 1×10^5 cells/ml in DMEM. […] The cells at the upper side of the trans-well inserts were gently removed with cotton swabs. The cells migrated to the bottom side of the transwells were fixed with 2% paraformaldehyde for 10 min. The trans-well membrane was removed and placed on glass slides. After addition of fluorescence mounting medium containing DAPI, the fluorescence labelled cells on the membrane were quantified under a fluorescence microscope.

[8] = system: human pancreatic cancer PANC1 cells; test: Pancreatic cancer cell adhesion to basement matrix; format: cell-based; conditions: for Effect on adhesion of galectin-3 knockout (Gal3KO) PANC1 cells: CRISPR/Cas9 Gal3KO cells; for Effect on adhesion of non-transfected (con) PANC1 cells: control cells; for Inhibition of PANC1 cell adhesion to matrix: different concentrations
Experimental: as §2, §3
(§5) MDAMB-231 or PANC-1 cells were seeded into 6-well plate (2×10^5 cells) and cultured at 37° C. for 24 hour. Galectin-3 CRISPR Cas9 Knockout plasmid (2 μg) and galectin-3 HDR plasmid (2 μg) was mixed with Plasmid Transfection Medium (21 μl) for 5 minutes before addition to a mixture of lipofectamine STEM Transfection Reagent (STEM00001) (1 μl) and Plasmid Transfection Medium (25 μl) for 10 minutes at room temperature. The cells in the 6-well plates were washed and introduced with the Plasmid DNA/Lipofectamine STEM Transfection Reagent complex at 37° C. for 24 hour. The culture medium was replaced with fresh antibiotics-free medium for further 24 hour before introduction of 10 μg/mL puromycin-containing medium every three days. Successful co-transfection of the CRISPR/Cas9 KO Plasmid and HDR Plasmid was confirmed by expression of red fluorescence protein of the cells. Galectin-3 knockout in the cells was further confirmed by immunoblotting.

[9] = system: human umbilical vein endothelial cells (HUVECs); test: Vascular cell tubule formation (angiogenesis); format: cell-based; conditions: Galectin-3 2 μg/ml, various concentrations
Experimental: Matrigel matrix (50 μl) was added to 96-well plates for 60 min at 37° C. to allow gel formation. HUVEC cells (1×10^5 cells/ml in 1:1 EGM/EBM2 media) was introduced to the plates without or with galectin-3 (2 μg/ml) or different concentrations of compound inhibitors for 24 hr at 37° C. Endothelial cell tube formation was examined with Laser Microscope. The total number of branching points and the sum of the lengths of tubes were measured.

[10] = system: triple-negative breast cancer MDA-MB-231 cells; test: Triple-negative breast cancer cell adhesion to basement matrix; format: cell-based, human; conditions: for Effect on adhesion of galectin-3 knockout (Gal3KO) MDA-MB-231 cells: CRISPR/Cas9 Gal3KO cells; for Effect on adhesion of non-transfected (con) MDA-MB-231 cells: control cells; for Inhibition of MDA-MB-231 cell adhesion to matrix: different concentrations
Experimental: as §2, §3, §5

vascular HUVECs = test: LDH release cytotoxicity assay, HUVECs; format: cell-based, human; conditions: various concentrations
Experimental: as §6

Galectin-8 = target: T3, Galectin-8 (Homo sapiens, UniProt O00214); test: Galectin-8 binding to asialofetuin ELISA; conditions: Gal-8 5 μg/ml, ASF 20 μg/ml
T3 construct: purchased R&D Systems (Abingdon, UK)
T3 sequence (O00214 1-317): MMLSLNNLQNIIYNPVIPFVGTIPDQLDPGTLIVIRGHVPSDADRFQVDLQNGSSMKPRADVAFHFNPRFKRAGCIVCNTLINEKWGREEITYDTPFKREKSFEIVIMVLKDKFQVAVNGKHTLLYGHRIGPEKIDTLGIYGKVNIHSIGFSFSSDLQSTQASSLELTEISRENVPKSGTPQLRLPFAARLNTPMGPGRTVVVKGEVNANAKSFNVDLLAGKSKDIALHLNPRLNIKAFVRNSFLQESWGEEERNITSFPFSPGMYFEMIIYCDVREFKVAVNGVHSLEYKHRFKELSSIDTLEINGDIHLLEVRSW
Experimental: as §4

Row | Compound | Inhibition of galectin-3-induced TNFα secretion [2] | IC50 [3] [µM] | Inhibition of H1975 cell adhesion to matrix [3] | Cytotoxicity to SW620 cells (LDH release) [4] | Inhibition of SW620 cell adhesion to HUVECs [5] | Inhibition of galectin-3-induced IL-1β secretion [6] | Kd (full-length galectin-3) [µM] | Inhibition of Galectin-3 binding to its ligand asialofetuin (ASF) (Galectin-3) | IC50 (Galectin-3) [µM] | Inhibition of galectin-3-mediated invasion of SW620 cells through HUVECs [7] | Effect on adhesion of galectin-3 knockout (Gal3KO) PANC1 cells [8] | Effect on adhesion of non-transfected (con) PANC1 cells [8] | Inhibition of PANC1 cell adhesion to matrix [8] | Inhibition of tubule numbers [9] | Inhibition of vascular tubule length [9] | Effect on adhesion of galectin-3 knockout (Gal3KO) MDA-MB-231 cells [10] | Effect on adhesion of non-transfected (con) MDA-MB-231 cells [10] | Inhibition of MDA-MB-231 cell adhesion to matrix [10] | Cytotoxicity to HUVEC cells (LDH release) (vascular HUVECs) | further results
1 | CO/N=C1\CN(c2nc3c(cc2F)c(=O)c(C(=O)O)cn3C2CC2)CC1CN (stereo not drawn) [Formula W, Gemifloxacin] | – | – | – | – | – | – | – | – | – | – | – | – | – | – | – | – | – | – | – | Effect on migration, invasion and metastasis in human breast cancer cells [1]: inhibit migration, invasion and metastasis; Effect on migration and invasion of human colon cancer cells (human colon cancer cells): inhibit migration and invasion
2 | Cc1c(O)cccc1C(=O)N[C@@H](CSc1ccccc1)[C@H](O)CN1C[C@H]2CCCC[C@H]2C[C@H]1C(=O)NC(C)(C)C [Formula Y, Nelfinavir mesylate] | dose-dependent inhibition | ~5 | dose-dependent inhibition | little or low toxicity | dose-dependent inhibition | dose-dependent inhibition | ~90 | inhibit galectin-3 binding to ASF in a dose-dependent manner | ≤ 10 | dose-dependent inhibition | lost their inhibitory effect | significant reduction | dose-dependent inhibition | dose-dependent inhibition | dose-dependent inhibition | lost their inhibitory effect | significant reduction | dose-dependent inhibition | little or low toxicity | IC50 ([10]; Homo sapiens, MDA-MB-231): ~10 µM
3 | CN(C)CCOc1ccc(/C(=C(/CCCl)c2ccccc2)c2ccccc2)cc1 [Formula Z, Toremifene citrate] | dose-dependent inhibition | 5 to 10 | dose-dependent inhibition | low cytotoxicity | dose-dependent inhibition | dose-dependent inhibition | ~35 | inhibit galectin-3 binding to ASF in a dose-dependent manner | ≤ 10 | dose-dependent inhibition | lost their inhibitory effect | significant reduction | dose-dependent inhibition | dose-dependent inhibition | dose-dependent inhibition | lost their inhibitory effect | significant reduction | dose-dependent inhibition | low cytotoxicity | –
4 | OC[C@H]1O[C@@H](O[C@H]2[C@H](O)[C@@H](O)C(O)O[C@@H]2CO)[C@H](O)[C@@H](O)[C@H]1O (stereo partly drawn) [lactose] | – | – | – | – | – | – | – | – | – | – | – | – | – | – | – | – | – | – | – | Effect on Galectin-8 binding to asialofetuin (Galectin-8): dose-dependently inhibits
